Test results taken from patent US8206762B2, “Use of Echinacea or preparations thereof in compositions for the treatment of anxiety” (priority 2006, dated 2012).
“Also recorded” adds a separate entry of the source.

What was measured:
[1] = test system: mice; conditions: cited from earlier work
[2] = test system: rats; conditions: cited from earlier work
[3] = test system: humans; conditions: lorazepam 3×1 mg daily; buspirone 3×5 mg daily; cited from earlier work
[4] = test system: Wistar rats; experiment: Elevated plus-maze test of anxiety; type: in vivo, rat; conditions: FIG. 2
Procedure: For laboratory studies, we used an ethyl alcoholic Echinacea purpurea root tincture prepared by FitoChem Ltd. (H-2200 Monor, 14 Kossuth Str, ww.fitochem.hu), on the 21st of February, 2006 (Lot number FECH-010011205; analytical ID: 052/06). The dry residue was 1.7% w/w, whereas the lead content was less than 10 μg/g. Microbiological analysis provided satisfactory results (e.g. the total plate count was less than 1000 CFU/g). The extract containing 70% ethyl alcohol was stored at room temperature (validity date under these conditions: March, 2007), and used in experiments in April-May, 2006. Before use, ethyl alcohol was evaporated in vacuum at 4° C. by means of a Speed Vac Concentrator (Savant Instruments Inc., Farmingdale, USA). […] The dose was expressed as mg dry residue/kg body weight. […]
This test was described first by Pellow et al. (1984), and later became one of the most popular anxiety tests, frequently used for the identification of putative anxiolytics. […] To avoid confounds with anxiety, the locomotor effects of compounds are evaluated based on closed arm entries (Hogg, 1996).
The elevated plus-maze (arm length 50 cm, arm width 17 cm; wall height 30 cm; platform height 80 cm) was made of dark grey painted wood, and lit by 4 white lamps of 40 W each (approximately 200 lx). […] Behaviors were scored by experimenters blind to treatment conditions by means of a computer based event recorder. […]

Row | Structure (SMILES) | effect on anxiety in mice [1] | time to significant effects over placebo on State-Trait Anxiety Inventory scores [3] | treatment time to State-Trait anxiety scores lower than 45 [3] | further results
1 | Cc1c(C(=O)NN2CCCCC2)nn(-c2ccc(Cl)cc2Cl)c1-c1ccc(I)cc1 [AM-251] | anxiogenic | – | – | –
2 | Cc1c(C(=O)NN2CCCCC2)nn(-c2ccc(Cl)cc2Cl)c1-c1ccc(Cl)cc1 [SR-141716A] | anxiolytic | – | – | effect on anxiety in rats [2]: anxiogenic
3 | O=C1CC2(CCCC2)CC(=O)N1CCCCN1CCN(c2ncccn2)CC1 [buspirone] | – | 3 weeks | 6 weeks | –
4 | CNC1=Nc2ccc(Cl)cc2C(c2ccccc2)=[N+]([O-])C1 [chlordiazepoxide] | – | – | – | locomotor behavior (closed arm entries) / sedation [4]: highly sedative at higher doses; also recorded: significant locomotor suppression
5 | O=C1Nc2ccc(Cl)cc2C(c2ccccc2Cl)=NC1O (centres unmarked) [lorazepam] | – | one week | three weeks | –
